From PubChem BioAssay AID1963439 (Molecular Pharmacology Branch, DTP, NCI, 2024)

Tested on: NCI-H196 complex spheroids with HUVEC/MSC, growth % T/C
Assay: Anticancer human tumor NCI-H196 cell line growth inhibition [Asc];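 note: spheroids exposed to compound for 7 days before measurement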;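 for viability, T/C: 100% = DMSO vehicle control wells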
Conditions: for IC50: curve of first compound; for viability, T/C: stronger effect = lower value
Procedure: Multicellular complex tumor spheroid response to apoptosis pathway targeting inhibitors Alrizomadlin, Pelcitoclax, and Dasminapant in combination with a variety of drugs and investigational agents in selected tumor cell lines
The MDM2 inhibitor alrizomadlin, the Bcl-2/Bcl-xL inhibitor pelcitoclax, and the IAPs inhibitor dasminapant were evaluated both individually and in combination with standard of care and investigational anticancer small molecules within a complex spheroid model of solid tumors. . Complex spheroids include a stromal component modeled by human endothelial cells (HUVEC) and fibroblasts modeled by human mesenchymal stem cells (MSCs). The concentration ranges selected for each drug and investigational agent were based upon clinically achievable concentrations if the clinical Cmax of the agent was known.
Compounds. The drugs and investigational agents: alrizomadlin (APG-115; NSC831270), pelcitoclax (APG-1252; NSC835773), dasminapant (APG-1387;NSC834197), TAK-243 (NSC785004), copanlisib (NSC809693), olaparib (NSC753686), talazoparib (NSC767125), cobimetinib (NSC 768068), eltanexor (KPT-8602, NSC 794443), abemaciclib (NSC 768073), sotorasib (NSC818433), adagrasib (NSC 831453), MRTX-1133 (NSC 836407), Iadademestat (ORY1001, NSC 806812), and RMC-4630 (NSC839698), were obtained from the NCI Developmental Therapeutics Program Chemical Repository. The FDA-approved anticancer drug set is available from the Developmental Therapeutics Program at https://dtp.cancer.gov/organization/dscb/obtaining/available plates.htm. […] The stock solutions were prepared in dimethyl sulfoxide (DMSO, Sigma-Aldrich, St. Louis, MO, cat. D2650) at 800-fold the tested concentration and stored at -70 degrees C prior to their use. All drugs and investigational agents were tested over a range starting from a high concentration at or near the clinical Cmax and decreasing in half-log increments. If the clinical Cmax for an agent had not been determined, the highest concentration tested was 10 microM.
The patient-derived cancer (PDC) cell lines include five colon adenocarcinomas: 186277-243-T-J2-PDC, 616215-338-R-J1-PDC, 439559-082-T-J2-PDC, 463943-066-T-J2-PDC, and 519858-162-T-J1-PDC; three pancreatic carcinomas: 323965-272-R-J2-PDC, 521955-158-R6-J3-PDC, and 521955-158-R2-J5-PDC; two uterine sarcomas: 327498-152-R-J2-PDC and 993429-296-R-J1-PDC; two rhabdomyosarcomas: 755483-174-R-J1-PDC and 772245-204-R-J1-PDC; two soft tissue sarcomas: 126254-015-R-J1-PDC and 494315-158-R-J1-PDC; two malignant fibrous histiocytomas: 317291-083-R-J1-PDC and 596521-263-R-J1-PDC; two breast carcinomas: 171881-019-R-J1-PDC and 885512-296-R-J2-PDC; and one ovarian carcinoma: 6556581-035-R-J-PDC were obtained from the NCI PDMR, (https://pdmr.cancer.gov). The established cell lines HSSY-2 synovial sarcoma (RRID:CVCL 8719), SYO-1 synovial sarcoma (RRID:CVCL_7146), MPNST malignant peripheral neural sheath tumor were obtained from the Sloan Kettering Institute. The following established cell lines were purchased from the American Type Culture Collection (ATCC, Manassas, VA), Sor the received from the NCI repository:, PANC-1 pancreatic carcinoma (CRL-1469, RRID:CVCL_0480), OVCAR-5 ovarian carcinoma (RRID:CVCL_1628), OVCAR-8 ovarian carcinoma (RRID:CVCL_1629), , MCF-7 breast carcinoma (CRL-12584, RRID:CVCL_0031), MDA-MB-231 breast carcinoma (CRL-12532, RRID:CVCL_0062), NCI-H1876 small cell lung carcinoma (CRL-5902, RRID:CVCL_1503), NCI-H510A small cell lung carcinoma (HTB-184, RRID:CVCL_1565), NCI-H1417 (CRL-5869, RRID:CVCL_1469), and NCI-H196 small cell lung carcinoma (CRL-5823, RRID:CVCL_1509). Dr. Peter Houghton (Greehey Children's Cancer Research Institute, University of Texas Health Science Center, San Antonio, TX) provided Rh-18 rhabdomyosarcoma (RRID:CVCL_1659). Pooled donor human umbilical vein endothelial cells (HUVEC, Lonza, cat. CC-2519) and human mesenchymal stem cells (hMSC, Lonza, cat. PT-2501) were purchased from Lonza (Walkersville, MD).
Cell Culture. […]

With `CCN1CCN(Cc2ccc(Nc3ncc(F)c(-c4cc(F)c5nc(C)n(C(C)C)c5c4)n3)nc2)CC1` + CCN1C(C(=O)NC23CCC(C(=O)O)(CC2)CC3)C(c2cccc(Cl)c2F)C2(C(=O)Nc3cc(Cl)ccc32)C12CCCCC2 the IC50 (second compound 0.03 µM) was > 1 µM, the IC50 (second compound 0.0949 µM) was > 1 µM and the IC50 (second compound 0.3 µM) was > 1 µM. For the same compound, the IC50 (second compound 0.949 µM) was > 1 µM, the IC50 (second compound 3 µM) was > 1 µM and the viability, T/C (second compound 0.03 µM, first compound 0.00316 µM) was 99.9%. It also gave a viability, T/C (second compound 0.03 µM, first compound 0.01 µM) of 99.8%, a viability, T/C (second compound 0.03 µM, first compound 0.0316 µM) of 96.1% and a viability, T/C (second compound 0.03 µM, first compound 0.1 µM) of 99.8%. It also gave a viability, T/C (second compound 0.03 µM, first compound 0.316 µM) of 116%, a viability, T/C (second compound 0.03 µM, first compound 1 µM) of 124% and a viability, T/C (second compound 0.0949 µM, first compound 0.00316 µM) of 113%. It also gave a viability, T/C (second compound 0.0949 µM, first compound 0.01 µM) of 112%, a viability, T/C (second compound 0.0949 µM, first compound 0.0316 µM) of 99.4% and a viability, T/C (second compound 0.0949 µM, first compound 0.1 µM) of 106%. For the same compound, the viability, T/C (second compound 0.0949 µM, first compound 0.316 µM) was 115%, the viability, T/C (second compound 0.0949 µM, first compound 1 µM) was 131% and the viability, T/C (second compound 0.3 µM, first compound 0.00316 µM) was 107%. The viability, T/C (second compound 0.3 µM, first compound 0.01 µM) was 128%, the viability, T/C (second compound 0.3 µM, first compound 0.0316 µM) was 117% and the viability, T/C (second compound 0.3 µM, first compound 0.1 µM) was 114%. The viability, T/C (second compound 0.3 µM, first compound 0.316 µM) was 117%, the viability, T/C (second compound 0.3 µM, first compound 1 µM) was 140% and the viability, T/C (second compound 0.949 µM, first compound 0.00316 µM) was 127%. It also gave a viability, T/C (second compound 0.949 µM, first compound 0.01 µM) of 111%, a viability, T/C (second compound 0.949 µM, first compound 0.0316 µM) of 123% and a viability, T/C (second compound 0.949 µM, first compound 0.1 µM) of 113%. The viability, T/C (second compound 0.949 µM, first compound 0.316 µM) was 120%, the viability, T/C (second compound 0.949 µM, first compound 1 µM) was 142% and the viability, T/C (second compound 3 µM, first compound 0.00316 µM) was 129%. It also gave a viability, T/C (second compound 3 µM, first compound 0.01 µM) of 123%, a viability, T/C (second compound 3 µM, first compound 0.0316 µM) of 114% and a viability, T/C (second compound 3 µM, first compound 0.1 µM) of 109%. It also gave a viability, T/C (second compound 3 µM, first compound 0.316 µM) of 119% and a viability, T/C (second compound 3 µM, first compound 1 µM) of 139%.
In the case of `C#Cc1c(F)ccc2cc(O)cc(-c3ncc4c(N5CC6CCC(C5)N6)nc(OCC56CCCN5CC(F)C6)nc4c3F)c12` (stereo not given) + Cc1c(S(C)(=O)=O)c(-c2cc(F)cc(N3CCN(c4ccc(NS(=O)(=O)c5ccc(NC(CCN6CCC(C(=O)OCCCP(=O)(O)O)CC6)CSc6ccccc6)c(S(=O)(=O)C(F)(F)F)c5)cc4)CC3)c2)c(-c2ccc(Cl)cc2)n1C(C)C, the IC50 (second compound 0.1 µM) is reported as > 10 µM, the IC50 (second compound 0.316 µM) is reported as > 10 µM and the IC50 (second compound 1 µM) is reported as > 10 µM. The IC50 (second compound 3.16 µM) was > 10 µM, the IC50 (second compound 10 µM) was > 10 µM and the viability, T/C (second compound 0.1 µM, first compound 0.0316 µM) was 92.8%. It also gave a viability, T/C (second compound 0.1 µM, first compound 0.1 µM) of 93%, a viability, T/C (second compound 0.1 µM, first compound 0.316 µM) of 98.2% and a viability, T/C (second compound 0.1 µM, first compound 1 µM) of 98.1%. The viability, T/C (second compound 0.1 µM, first compound 3.16 µM) was 94.2%, the viability, T/C (second compound 0.1 µM, first compound 10 µM) was 93.5% and the viability, T/C (second compound 0.316 µM, first compound 0.0316 µM) was 98.3%. For the same compound, the viability, T/C (second compound 0.316 µM, first compound 0.1 µM) was 93.3%, the viability, T/C (second compound 0.316 µM, first compound 0.316 µM) was 88.8% and the viability, T/C (second compound 0.316 µM, first compound 1 µM) was 97.8%. The viability, T/C (second compound 0.316 µM, first compound 3.16 µM) was 94.8%, the viability, T/C (second compound 0.316 µM, first compound 10 µM) was 88.1% and the viability, T/C (second compound 1 µM, first compound 0.0316 µM) was 88.9%. It also gave a viability, T/C (second compound 1 µM, first compound 0.1 µM) of 87.7%, a viability, T/C (second compound 1 µM, first compound 0.316 µM) of 90.8% and a viability, T/C (second compound 1 µM, first compound 1 µM) of 89.2%. For the same compound, the viability, T/C (second compound 1 µM, first compound 3.16 µM) was 93.7%, the viability, T/C (second compound 1 µM, first compound 10 µM) was 83.7% and the viability, T/C (second compound 3.16 µM, first compound 0.0316 µM) was 84.4%. The viability, T/C (second compound 3.16 µM, first compound 0.1 µM) was 86.7%, the viability, T/C (second compound 3.16 µM, first compound 0.316 µM) was 81.3% and the viability, T/C (second compound 3.16 µM, first compound 1 µM) was 75.5%. It also gave a viability, T/C (second compound 3.16 µM, first compound 3.16 µM) of 78.5%, a viability, T/C (second compound 3.16 µM, first compound 10 µM) of 70.1% and a viability, T/C (second compound 10 µM, first compound 0.0316 µM) of 71.8%. It also gave a viability, T/C (second compound 10 µM, first compound 0.1 µM) of 77.8%, a viability, T/C (second compound 10 µM, first compound 0.316 µM) of 82.7% and a viability, T/C (second compound 10 µM, first compound 1 µM) of 80.4%. The viability, T/C (second compound 10 µM, first compound 3.16 µM) was 71.2% and the viability, T/C (second compound 10 µM, first compound 10 µM) was 58%.
